Experimental findings from patent US8148391B2 (Cephalon, Inc., priority 2006, dated 2012) are described below.

Where two headings read alike, the source gives them in different places.

Assay [1] deals with T1, baculovirus-expressed ALK (Homo sapiens, UniProt Q9UM73).
T1 construct: host or cells: baculovirus expression system
Put plainly: ALK Kinase Assay (ELISA-type, time-resolved fluorescence). Format: biochemical. The essentials:
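Substrate coating: phospholipase C-γ, 10 μg/mL in TBS. Kinase step: 30 ng/ml ALK, 15 min, 37° C. Detection and analysis: Eu-N1 PT66 antibody, with IC50 fitted as a sigmoidal variable-slope dose-response curve.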

Assay [2] deals with T2, c-Met (cytoplasmic domain) (Homo sapiens, UniProt P08581).
T2 construct: 10 ng/mL c-Met (cytoplasmic domain, Invitrogen Corporation #PV3143); purchased Invitrogen Corporation PV3143
T2 sequence (P08581 956-1390 limits assumed): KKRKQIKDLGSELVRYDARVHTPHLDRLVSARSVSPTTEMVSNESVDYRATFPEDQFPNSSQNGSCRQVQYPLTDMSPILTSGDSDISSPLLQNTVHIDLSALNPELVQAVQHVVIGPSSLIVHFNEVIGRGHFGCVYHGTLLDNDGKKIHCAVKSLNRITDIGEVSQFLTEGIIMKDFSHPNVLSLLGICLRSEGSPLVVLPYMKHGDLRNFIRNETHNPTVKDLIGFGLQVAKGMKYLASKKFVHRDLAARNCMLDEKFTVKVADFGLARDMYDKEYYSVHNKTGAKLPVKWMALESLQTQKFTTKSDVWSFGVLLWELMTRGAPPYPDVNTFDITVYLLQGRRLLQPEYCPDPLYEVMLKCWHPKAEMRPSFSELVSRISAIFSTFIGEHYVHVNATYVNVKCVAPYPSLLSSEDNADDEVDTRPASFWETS
Put plainly: c-Met Kinase Assay (same methods as for ALK, with modifications). The assay is classed as biochemical. The essentials:
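Wells were coated with 10 μg/mL phospholipase C-γ substrate in TBS, and reactions were started with 10 ng/mL c-Met cytoplasmic domain and run at 37° C for 15 minutes. Phosphorylated product was detected with Eu-N1-labeled PT66 antibody. IC50 values came from sigmoidal variable-slope fits of percent inhibition versus log compound concentration.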

Where [3] appears, read: 1 μM ATP (Km level), 30 ng/ml ALK, 37° C., 15 minutes, read-out: ALK Activity (ALK kinase inhibition, IC50 class).
[4] abbreviates: 1 μM ATP (Km level), 10 ng/mL c-Met, read-out: cMet Activity (c-Met kinase inhibition, IC50 class).
Setting [5] is: ALK kinase inhibition, 1 μM ATP (Km level), read-out: ALK Activity.
Setting [6] is: c-Met kinase inhibition, 1 μM ATP (Km level), read-out: cMet Activity.

T1 sequence (Q9UM73 19-1620): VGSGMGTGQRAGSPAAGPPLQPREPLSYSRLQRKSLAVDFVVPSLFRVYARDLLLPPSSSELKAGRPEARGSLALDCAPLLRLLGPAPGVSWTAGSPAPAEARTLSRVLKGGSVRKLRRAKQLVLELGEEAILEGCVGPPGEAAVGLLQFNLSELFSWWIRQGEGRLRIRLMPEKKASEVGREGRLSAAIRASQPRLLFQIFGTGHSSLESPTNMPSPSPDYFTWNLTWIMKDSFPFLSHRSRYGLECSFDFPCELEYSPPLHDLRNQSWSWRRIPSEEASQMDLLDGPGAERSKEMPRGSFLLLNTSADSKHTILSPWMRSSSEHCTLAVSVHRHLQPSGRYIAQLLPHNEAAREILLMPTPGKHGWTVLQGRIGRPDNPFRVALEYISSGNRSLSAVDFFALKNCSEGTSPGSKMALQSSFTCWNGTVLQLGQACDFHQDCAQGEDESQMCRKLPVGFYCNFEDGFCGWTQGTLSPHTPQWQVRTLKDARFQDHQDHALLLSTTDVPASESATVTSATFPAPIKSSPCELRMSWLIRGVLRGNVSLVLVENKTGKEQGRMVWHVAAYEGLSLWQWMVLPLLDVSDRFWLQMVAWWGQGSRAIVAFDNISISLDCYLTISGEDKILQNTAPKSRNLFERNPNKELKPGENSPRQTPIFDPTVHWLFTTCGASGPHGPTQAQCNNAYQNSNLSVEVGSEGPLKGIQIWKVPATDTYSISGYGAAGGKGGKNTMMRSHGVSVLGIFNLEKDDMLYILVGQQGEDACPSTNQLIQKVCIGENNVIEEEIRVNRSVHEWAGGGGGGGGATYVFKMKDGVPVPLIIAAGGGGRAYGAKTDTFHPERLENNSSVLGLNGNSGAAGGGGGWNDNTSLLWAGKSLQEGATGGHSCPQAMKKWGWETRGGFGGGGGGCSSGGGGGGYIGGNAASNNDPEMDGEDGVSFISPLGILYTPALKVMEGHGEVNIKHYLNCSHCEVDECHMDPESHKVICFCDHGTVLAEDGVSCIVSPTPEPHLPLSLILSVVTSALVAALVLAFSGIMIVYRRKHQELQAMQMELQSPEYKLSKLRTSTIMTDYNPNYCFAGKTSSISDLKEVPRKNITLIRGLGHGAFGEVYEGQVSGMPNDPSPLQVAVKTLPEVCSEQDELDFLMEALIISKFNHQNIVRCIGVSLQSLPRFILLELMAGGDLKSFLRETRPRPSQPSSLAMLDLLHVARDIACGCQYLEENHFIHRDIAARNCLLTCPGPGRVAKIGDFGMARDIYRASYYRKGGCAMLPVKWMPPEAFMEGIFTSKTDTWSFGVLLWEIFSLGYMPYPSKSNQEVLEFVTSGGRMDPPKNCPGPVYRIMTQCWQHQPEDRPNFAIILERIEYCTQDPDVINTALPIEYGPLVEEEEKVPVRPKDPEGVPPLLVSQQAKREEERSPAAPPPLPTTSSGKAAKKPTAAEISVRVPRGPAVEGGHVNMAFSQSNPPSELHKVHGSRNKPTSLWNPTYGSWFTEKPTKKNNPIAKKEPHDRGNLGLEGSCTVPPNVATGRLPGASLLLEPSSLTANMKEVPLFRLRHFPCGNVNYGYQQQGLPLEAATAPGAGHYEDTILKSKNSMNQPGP

With `COc1cc2c(cc1Nc1ncc(Cl)c(Nc3ccccc3-n3cccn3)n1)CCC(N1CCOCC1)CC2` (stereo not drawn) [Example 1052, 5-Chloro-N*2*-(3-methoxy-7-morpholin-4-yl-6,7,8,9-tetrahydro-5H-benzocyclohepten-2-yl)-N*4*-(2-pyrazol-1-yl-phenyl)-pyrimidine-2,4-diamine], the results for the IC50 in assay [1] (setting [3]) and in assay [2] (setting [4]) were less than 100 nM and more than 10000 nM, respectively.
As to `CNC(=O)c1cc(-c2cnn(C)c2)cc(F)c1Nc1nc(Nc2ccc3c(c2)NC(=O)CCC3)ncc1Cl` [Example 1422, 2-[5-Chloro-2-(2-oxo-2,3,4,5-tetrahydro-1H-benzo[b]azepin-8-ylamino)-pyrimidin-4-ylamino]-3-fluoro-N-methyl-5-(1-methyl-1H-pyrazol-4-yl)-benzamide], the IC50 in assay [1] (setting [3]) is 100 to 1000 nM; in assay [2] (setting [4]), less than 100 nM.
As for `COCCN1CCc2ccc(Nc3ncc(Cl)c(Nc4c(C)cccc4C(=O)NCC#N)n3)cc2CC1` [Example 1040, 2-{5-Chloro-2-[3-(2-methoxy-ethyl)-2,3,4,5-tetrahydro-1H-benzo[d]azepin-7-ylamino]-pyrimidin-4-ylamino}-N-cyanomethyl-3-methyl-benzamide], the IC50 in assay [1] (setting [3]) and in assay [2] (setting [4]) was 100 to 1000 nM in each case.
Take `COCCN1CCc2ccc(Nc3ncc(Cl)c(NC(C)(C)CNS(C)(=O)=O)n3)cc2CC1` [Example 306, N-(2-{5-Chloro-2-[3-(2-methoxy-ethyl)-2,3,4,5-tetrahydro-1H-benzo[d]azepin-7-ylamino]-pyrimidin-4-ylamino}-2-methyl-propyl)-methanesulfonamide]: the IC50 in assay [1] (setting [5]) was 100 to 1000 nM; in assay [2] (setting [6]) it was more than 10000 nM.
For `CCOC(=O)N1C2CCC1c1c(ccc(Nc3ncc(Cl)c(Nc4ccccc4C(=O)NC)n3)c1Cl)C2` (stereo not drawn) [Example 75, 3-Chloro-4-[5-chloro-4-(2-methylcarbamoyl-phenylamino)-pyrimidin-2-ylamino]-12-aza-tricyclo[7.2.1.0*2,7*]dodeca-2(7),3,5-triene-12-carboxylic acid ethyl ester], the IC50 is less than 100 nM in assay [1] (setting [5]) and 1000 to 10000 nM in assay [2] (setting [6]).
As for `COCC(COC)N1CCc2cc(Nc3ncc(Cl)c(Nc4ccccc4S(=O)(=O)C(C)C)n3)c(OC)cc2CC1` [Example 817, 5-Chloro-N*2*-[8-methoxy-3-(2-methoxy-1-methoxymethyl-ethyl)-2,3,4,5-tetrahydro-1H-benzo[d]azepin-7-yl]-N*4*-[2-(propane-2-sulfonyl)-phenyl]-pyrimidine-2,4-diamine], the IC50 in assay [1] (1 μM ATP (Km level), read-out: ALK Activity (ALK Kinase Inhibition, IC50)) was less than 100 nM; in assay [2] (1 μM ATP (Km level), read-out: cMet Activity (c-Met Kinase Inhibition, IC50)), more than 10000 nM.
Consider `CC1(C)NC(=O)CCc2ccc(Nc3ncc(Cl)c(NC4C5C=CC(C5)C4C(N)=O)n3)cc21` (stereo not drawn) [Example 1832, 3-(5-Chloro-2-(1,1-dimethyl-3-oxo-2,3,4,5-tetrahydro-1H-benzo[c]azepin-8-ylamino)pyrimidin-4-ylamino)bicyclo[2.2.1]hept-5-ene-2-carboxamide], for which the IC50 is less than 100 nM in assay [1] (ALK kinase inhibition, 1 μM ATP, read-out: ALK Activity) and less than 100 nM in assay [2] (c-Met kinase inhibition, 1 μM ATP, read-out: cMet Activity).
Regarding `CCN1CCc2cc(Nc3ncc(Cl)c(Nc4ccccc4C(=O)NC)n3)c(OC)cc2CC1` [Example 48, 2-[5-Chloro-2-(3-ethyl-8-methoxy-2,3,4,5-tetrahydro-1H-benzo[d]azepin-7-ylamino)-pyrimidin-4-ylamino]-N-methyl-benzamide], the figures for the IC50 in assay [1] (setting [5]) and in assay [2] (setting [6]) were less than 100 nM and 1000 to 10000 nM, respectively.
Consider `COc1cc2c(cc1Nc1ncc(Cl)c(Nc3ccccc3S(=O)(=O)N(C)C)n1)CCN(C(=O)CN1CCOCC1)CC2` [Example 1192, 2-{5-Chloro-2-[8-methoxy-3-(2-morpholin-4-yl-acetyl)-2,3,4,5-tetrahydro-1H-benzo[d]azepin-7-ylamino]-pyrimidin-4-ylamino}-N,N-dimethyl-benzenesulfonamide], for which the IC50 in assay [1] (setting [3]) was less than 100 nM; in assay [2] (setting [4]), 1000 to 10000 nM.
